According to patent US8664257B2, “Oxygen-substituted 3-heteroaroylamino-propionic acid derivatives and their use as pharmaceuticals” (Sanofi, priority 2010, dated 2014):

These compounds were tested against T1, Recombinant human cathepsin A (Homo sapiens, UniProt P10619) (assay: Cathepsin A inhibitory activity). Conditions: read-out: Activity (2): Cathepsin A inhibitory activity, IC50 class.
T1 construct: Recombinant human cathepsin A (residues 29-480, with a C-terminal 10-His tag); 10-His (C); purchased R&D Systems 1049-SE
T1 sequence (P10619 29-312 limits assumed): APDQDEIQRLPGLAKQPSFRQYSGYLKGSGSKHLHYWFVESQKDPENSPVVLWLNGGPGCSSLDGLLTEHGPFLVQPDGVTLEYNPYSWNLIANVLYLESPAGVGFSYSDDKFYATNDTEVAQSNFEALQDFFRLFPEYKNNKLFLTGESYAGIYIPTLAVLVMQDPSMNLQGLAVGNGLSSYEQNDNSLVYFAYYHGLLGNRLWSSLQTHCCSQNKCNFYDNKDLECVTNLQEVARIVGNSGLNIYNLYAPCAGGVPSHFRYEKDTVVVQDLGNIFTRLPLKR
T1 sequence (P10619 327-480 limits assumed): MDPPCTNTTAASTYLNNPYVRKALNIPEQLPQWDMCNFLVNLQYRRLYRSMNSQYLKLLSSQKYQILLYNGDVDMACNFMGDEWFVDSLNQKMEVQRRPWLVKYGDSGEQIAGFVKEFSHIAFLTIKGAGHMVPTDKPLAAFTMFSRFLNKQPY
Format: biochemical
Summary of the method: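 Human cathepsin A (res. 29-480, C-His10) pre-activated with cathepsin L (MES pH 6.0, DTT, 15 min, 37 °C; quenched with 10 μM E-64). Enzyme (833 ng/ml) preincubated 15 min RT with compound in MES pH 5.5/DTT, then 2 μM Bodipy FL-bradykinin for 15 min RT. Capillary electrophoresis product/substrate peak areas; IC50 from % inhibition.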
`CC(C)(C)[C@H](O)COc1cc(C(=O)N[C@@H](CC(=O)O)c2cccc(Cl)c2)nn1-c1ccccc1F` [Example 809, (S)-3-(3-Chloro-phenyl)-3-{[1-(2-fluoro-phenyl)-5-((S)-2-hydroxy-3,3-dimethyl-butoxy)-1H-pyrazole-3-carbonyl]-amino}-propionic acid] showed an IC50 of under 100 nM. In the case of `COc1ccccc1[C@H](CC(=O)O)NC(=O)c1cc(OC[C@@](C)(O)C(C)(C)C)n(-c2ccccc2F)n1` [Example 810, (S)-3-{[1-(2-Fluoro-phenyl)-5-((S)-2-hydroxy-2,3,3-trimethyl-butoxy)-1H-pyrazole-3-carbonyl]-amino}-3-(2-methoxy-phenyl)-propionic acid], the IC50 is reported as under 100 nM. `COc1ccccc1[C@H](CC(=O)O)NC(=O)c1cc(OCC(C)(O)C(C)C)n(-c2ccccc2F)n1` (stereo partly drawn) [Example 811, (S)-3-{[1-(2-Fluoro-phenyl)-5-(2-hydroxy-2,3-dimethyl-butoxy)-1H-pyrazole-3-carbonyl]-amino}-3-(2-methoxy-phenyl)-propionic acid] was tested, and the IC50 was under 100 nM. `CC(C)C(C)(O)COc1cc(C(=O)N[C@@H](CC(=O)O)c2ccccc2C(F)(F)F)nn1-c1ccccc1F` (stereo partly drawn) [Example 812, (S)-3-{[1-(2-Fluoro-phenyl)-5-(2-hydroxy-2,3-dimethyl-butoxy)-1H-pyrazole-3-carbonyl]-amino}-3-(2-trifluoromethyl-phenyl)-propionic acid] showed an IC50 of under 100 nM. In the case of `CC(C)C(C)(O)COc1cc(C(=O)NC(CC(=O)O)C2CCCCC2)nn1-c1ccccc1F` (stereo not drawn) [Example 813, 3-Cyclohexyl-3-{[1-(2-fluoro-phenyl)-5-(2-hydroxy-2,3-dimethyl-butoxy)-1H-pyrazole-3-carbonyl]-amino}-propionic acid], the IC50 is reported as under 100 nM. Compound `CC(C)CC(CC(=O)O)NC(=O)c1cc(OCC(C)(O)C(C)C)n(-c2ccccc2F)n1` (stereo not drawn) [Example 814, 3-{[1-(2-Fluoro-phenyl)-5-(2-hydroxy-2,3-dimethyl-butoxy)-1H-pyrazole-3-carbonyl]-amino}-5-methyl-hexanoic acid] has an IC50 of under 100 nM. Work on `CC(C)(C)C(O)COc1cc(C(=O)N[C@H](CC(=O)O)c2ccc(Cl)cc2)nn1-c1ccccc1F` (stereo partly drawn) [Example 815, (R)-3-(4-Chloro-phenyl)-3-{[1-(2-fluoro-phenyl)-5-(2-hydroxy-3,3-dimethyl-butoxy)-1H-pyrazole-3-carbonyl]-amino}-propionic acid] yielded an IC50 of under 100 nM. `CC(C)[C@@](C)(O)COc1cc(C(=O)N[C@@H](CC(=O)O)c2ccc(Cl)cc2Cl)nn1-c1ccccc1F` [Example 816, (S)-3-(2,4-Dichloro-phenyl)-3-{[1-(2-fluoro-phenyl)-5-((R)-2-hydroxy-2,3-dimethyl-butoxy)-1H-pyrazole-3-carbonyl]-amino}-propionic acid] was tested, and the IC50 was under 100 nM. Compound `CC(C)[C@](C)(O)COc1cc(C(=O)N[C@@H](CC(=O)O)c2c(F)cccc2F)nn1-c1ccccc1F` [Example 817, (S)-3-(2,6-Difluoro-phenyl)-3-{[1-(2-fluoro-phenyl)-5-((S)-2-hydroxy-2,3-dimethyl-butoxy)-1H-pyrazole-3-carbonyl]-amino}-propionic acid] has an IC50 of under 100 nM. `CC(C)(C)[C@](C)(O)COc1cc(C(=O)NC(CC(=O)O)Cc2ccccc2)nn1-c1ccccc1F` (stereo partly drawn) [Example 818, 3-{[1-(2-Fluoro-phenyl)-5-((S)-2-hydroxy-2,3,3-trimethyl-butoxy)-1H-pyrazole-3-carbonyl]-amino}-4-phenyl-butyric acid] gave an IC50 of under 100 nM. `CC(C)(C)[C@](C)(O)COc1cc(C(=O)N[C@@H](CC(=O)O)c2cccc(F)c2)nn1-c1ccccc1F` [Example 819, (S)-3-(3-Fluoro-phenyl)-3-{[1-(2-fluoro-phenyl)-5-((S)-2-hydroxy-2,3,3-trimethyl-butoxy)-1H-pyrazole-3-carbonyl]-amino}-propionic acid] gave an IC50 of under 100 nM. `CC(C)(C)[C@@](C)(O)COc1cc(C(=O)NC(CC(=O)O)C2CCCCC2)nn1-c1ccccc1F` (stereo partly drawn) [Example 820, 3-Cyclohexyl-3-{[1-(2-fluoro-phenyl)-5-((R)-2-hydroxy-2,3,3-trimethyl-butoxy)-1H-pyrazole-3-carbonyl]-amino}-propionic acid] gave an IC50 of under 100 nM. In the case of `CC(C)[C@@](C)(O)COc1cc(C(=O)NC(CC(=O)O)Cc2ccccc2)nn1-c1ccccc1F` (stereo partly drawn) [Example 821, 3-{[1-(2-Fluoro-phenyl)-5-((R)-2-hydroxy-2,3-dimethyl-butoxy)-1H-pyrazole-3-carbonyl]-amino}-4-phenyl-butyric acid], the IC50 is reported as under 100 nM. In the case of `COc1ccccc1[C@H](CC(=O)O)NC(=O)c1cc(OC[C@](C)(O)C(C)C)n(-c2ccccc2F)n1` [Example 822, (S)-3-{[1-(2-Fluoro-phenyl)-5-((R)-2-hydroxy-2,3-dimethyl-butoxy)-1H-pyrazole-3-carbonyl]-amino}-3-(2-methoxy-phenyl)-propionic acid], the IC50 is reported as under 100 nM. In the case of `CC(C)CC(CC(=O)O)NC(=O)c1cc(OC[C@](C)(O)C(C)C)n(-c2ccccc2F)n1` (stereo partly drawn) [Example 823, 3-{[1-(2-Fluoro-phenyl)-5-((R)-2-hydroxy-2,3-dimethyl-butoxy)-1H-pyrazole-3-carbonyl]-amino}-5-methyl-hexanoic acid], the IC50 is reported as 100 to 1000 nM. Work on `CC(C)[C@@](C)(O)COc1cc(C(=O)NC2(CC(=O)O)CCCC2)nn1-c1ccccc1F` [Example 824, (1-{[1-(2-Fluoro-phenyl)-5-((R)-2-hydroxy-2,3-dimethyl-butoxy)-1H-pyrazole-3-carbonyl]-amino}-cyclopentyl)-acetic acid] yielded an IC50 of 100 to 1000 nM. `CC(C)[C@](C)(O)COc1cc(C(=O)NC2(CC(=O)O)CCCC2)nn1-c1ccccc1F` [Example 825, (1-{[1-(2-Fluoro-phenyl)-5-((S)-2-hydroxy-2,3-dimethyl-butoxy)-1H-pyrazole-3-carbonyl]-amino}-cyclopentyl)-acetic acid] showed an IC50 of 100 to 1000 nM. Work on `CC(C)[C@](C)(O)COc1cc(C(=O)NC(CC(=O)O)Cc2ccccc2)nn1-c1ccccc1F` (stereo partly drawn) [Example 826, 3-{[1-(2-Fluoro-phenyl)-5-((S)-2-hydroxy-2,3-dimethyl-butoxy)-1H-pyrazole-3-carbonyl]-amino}-4-phenyl-butyric acid] yielded an IC50 of 100 to 1000 nM. `CC(C)[C@@](C)(O)COc1cc(C(=O)NCC(C(=O)O)c2ccccc2)nn1-c1ccccc1F` (stereo partly drawn) [Example 827, 3-{[1-(2-Fluoro-phenyl)-5-((R)-2-hydroxy-2,3-dimethyl-butoxy)-1H-pyrazole-3-carbonyl]-amino}-2-phenyl-propionic acid] gave an IC50 of 100 to 1000 nM. `CC(C)(C)[C@@H](O)COc1cc(C(=O)N[C@@H](CC(=O)O)c2ccc(Cl)cc2)nn1-c1ccccc1F` [Example 828, (S)-3-(4-Chloro-phenyl)-3-{[1-(2-fluoro-phenyl)-5-((R)-2-hydroxy-3,3-dimethyl-butoxy)-1H-pyrazole-3-carbonyl]-amino}-propionic acid] showed an IC50 of 100 to 1000 nM. `CC(C)C(C)(O)COc1cc(C(=O)NC(CC(=O)O)Cc2ccccc2)nn1-c1ccccc1F` (stereo not drawn) [Example 829, 3-{[1-(2-Fluoro-phenyl)-5-(2-hydroxy-2,3-dimethyl-butoxy)-1H-pyrazole-3-carbonyl]-amino}-4-phenyl-butyric acid] was tested, and the IC50 was 100 to 1000 nM. Work on `CC(C)[C@](C)(O)COc1cc(C(=O)NCC(C(=O)O)c2ccccc2)nn1-c1ccccc1F` (stereo partly drawn) [Example 830, 3-{[1-(2-Fluoro-phenyl)-5-((S)-2-hydroxy-2,3-dimethyl-butoxy)-1H-pyrazole-3-carbonyl]-amino}-2-phenyl-propionic acid] yielded an IC50 of 100 to 1000 nM. For `CC(C)(C)[C@](C)(O)COc1cc(C(=O)N[C@H](CC(=O)O)Cc2ccc(C#N)cc2)nn1-c1ccccc1F` [Example 832, (S)-4-(4-Cyano-phenyl)-3-{[1-(2-fluoro-phenyl)-5-((S)-2-hydroxy-2,3,3-trimethyl-butoxy)-1H-pyrazole-3-carbonyl]-amino}-butyric acid], the IC50 was 1000 to 30000 nM. With `CC(C)[C@](C)(O)COc1cc(C(=O)N[C@H](CC(=O)O)Cc2ccc(C#N)cc2)nn1-c1ccccc1F` [Example 834, (S)-4-(4-Cyano-phenyl)-3-{[1-(2-fluoro-phenyl)-5-((S)-2-hydroxy-2,3-dimethyl-butoxy)-1H-pyrazole-3-carbonyl]-amino}-butyric acid] the IC50 was 1000 to 30000 nM. For `CC(C)[C@](C)(O)COc1cc(C(=O)N[C@@H](CC(=O)O)c2ccccc2F)nn1-c1ccccc1F` [Example 835, (S)-3-(2-Fluoro-phenyl)-3-{[1-(2-fluoro-phenyl)-5-((S)-2-hydroxy-2,3-dimethyl-butoxy)-1H-pyrazole-3-carbonyl]-amino}-propionic acid], the IC50 was under 100 nM. `CC(C)C(C)(O)COc1cc(C(=O)N[C@H](CC(=O)O)Cc2ccc(C#N)cc2)nn1-c1ccccc1F` (stereo partly drawn) [Example 836, (S)-4-(4-Cyano-phenyl)-3-{[1-(2-fluoro-phenyl)-5-(2-hydroxy-2,3-dimethyl-butoxy)-1H-pyrazole-3-carbonyl]-amino}-butyric acid] gave an IC50 of 1000 to 30000 nM. For `CC(C)[C@](C)(O)COc1cc(C(=O)N[C@H](CC(=O)O)Cc2ccccc2)nn1-c1ccccc1F` [Example 837, (S)-3-{[1-(2-Fluoro-phenyl)-5-((S)-2-hydroxy-2,3-dimethyl-butoxy)-1H-pyrazole-3-carbonyl]-amino}-4-phenyl-butyric acid], the IC50 was 1000 to 30000 nM.
